The record followed here is ChEMBL document CHEMBL1201862, “PubChem BioAssay data set” (2004).

Assay [1] in a line: viability of uninfected HEp-2 cells – cell-based, HTS, cytotoxicity control for RSV inhibitor project, dose response (AID 2410). To be noted: human respiratory syncytial virus. It counts as functional.
Assay [2] deals with T1, RNA-binding protein pos-1 (Caenorhabditis elegans, UniProt G5EF15).
T1 sequence (G5EF15 whole entry): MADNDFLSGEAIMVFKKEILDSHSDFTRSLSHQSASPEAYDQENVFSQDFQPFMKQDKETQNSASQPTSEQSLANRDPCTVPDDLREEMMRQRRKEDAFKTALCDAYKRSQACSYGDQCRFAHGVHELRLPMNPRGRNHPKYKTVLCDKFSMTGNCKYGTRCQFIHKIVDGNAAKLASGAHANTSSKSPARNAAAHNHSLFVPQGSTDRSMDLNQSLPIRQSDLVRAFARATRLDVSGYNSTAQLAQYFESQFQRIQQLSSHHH
Kind of assay: disruptors of C. elegans POS-1 RNA interaction – biochemical, fluorescence polarization, dose response (AID 1964).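 Also: purified POS-1 fused to maltose binding protein made in E. coli; potency of compounds blocking POS-1 binding to fluorescent RNA.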

Assay [3] concerns the target T2, Zinc finger protein mex-5 (Caenorhabditis elegans, UniProt Q9XUB2).
T2 sequence (Q9XUB2 whole entry): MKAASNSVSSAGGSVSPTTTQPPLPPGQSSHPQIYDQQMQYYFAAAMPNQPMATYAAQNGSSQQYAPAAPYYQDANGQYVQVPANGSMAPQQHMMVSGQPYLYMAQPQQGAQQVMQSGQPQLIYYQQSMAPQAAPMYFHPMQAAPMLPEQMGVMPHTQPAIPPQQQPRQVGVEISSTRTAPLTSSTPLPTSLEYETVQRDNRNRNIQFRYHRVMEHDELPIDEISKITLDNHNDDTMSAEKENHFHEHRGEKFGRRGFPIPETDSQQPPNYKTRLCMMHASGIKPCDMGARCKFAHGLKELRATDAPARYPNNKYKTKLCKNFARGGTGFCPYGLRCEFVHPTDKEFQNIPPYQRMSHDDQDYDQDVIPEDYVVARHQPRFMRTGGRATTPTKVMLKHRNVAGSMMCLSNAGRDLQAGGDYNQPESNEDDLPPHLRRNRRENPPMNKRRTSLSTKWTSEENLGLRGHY
In words: potency of MEX-5 RNA-binding blockers – biochemical, C. elegans, fluorescence polarization, dose response (AID 1960).

The target of assay [4] is Induced myeloid leukemia cell differentiation protein Mcl-1 (Homo sapiens, UniProt Q07820). It counts as functional.
Assay [5] can be described thus: cells.
Assay [6] is described as follows: A Cell Based Secondary Assay To Explore Cytotoxicity of Compounds that Sensitize Mycobacterium Tuberculosis to Beta-Lactam Antibiotics. It counts as functional.
The test system of assay [7] is Vero. Kind of assay: mammalian cell viability reduction – secondary assay, cytotoxicity control for West Nile virus antiviral project, dose response (AID 1650). It counts as functional. The conditions noted are these: Chlorocebus sabaeus.
The nature of assay [8]: luciferase reporter signal suppression in cells – H4 neuroglioma cells, luminescence, dose response (AID 1990). It counts as functional, cell-based.
Assay [9] in a line: Luminescence Cell-Based Dose Response HTS to Identify Inhibitors of 5'UTR Stem-Loop Driven Prion Protein mRNA Translation in H4 Neuroglioblastoma Cells. [Related pubchem assays: 1827 (Project Summary), 1813 (Primary HTS)]. It counts as functional.
The nature of assay [10]: alpha-synuclein stem-loop luciferase translation blockers – H4 neuroglioma cells, luminescence, confirmation (AID 1988). It counts as functional, cell-based.
The nature of assay [11]: Luminescence Cell-Based Dose Retest to Confirm Inhibitors of Cancer Stem Cells. [Related pubchem assays (depositor defined):AID2717, AID2721]. To be noted: Homo sapiens. It counts as functional.
For assay [12], the target named is T3, Galanin receptor type 3 (Homo sapiens, UniProt O60755).
T3 sequence (O60755 whole entry): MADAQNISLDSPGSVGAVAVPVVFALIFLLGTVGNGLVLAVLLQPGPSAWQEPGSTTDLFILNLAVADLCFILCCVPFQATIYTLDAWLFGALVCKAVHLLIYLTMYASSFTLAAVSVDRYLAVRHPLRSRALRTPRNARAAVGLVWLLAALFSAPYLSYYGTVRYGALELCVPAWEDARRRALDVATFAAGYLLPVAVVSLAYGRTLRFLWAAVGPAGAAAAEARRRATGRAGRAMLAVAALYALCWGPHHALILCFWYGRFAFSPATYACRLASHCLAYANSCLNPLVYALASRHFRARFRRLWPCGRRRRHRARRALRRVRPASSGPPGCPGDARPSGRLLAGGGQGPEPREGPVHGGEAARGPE
Kind of assay: Fluorescence-based cell-based primary high throughput dose response assay to identify antagonists of the Galanin Receptor 3 (GalR3). It counts as functional.

Assay [13] is described as follows: cells. It counts as functional, cell-based. The conditions noted are these: HEK-CNG.
Assay [14] is described as follows: HIV-1 Vif–A3G interaction blockers – biochemical, TR-FRET, GST-Vif 1-94, biotin-A3G peptide, dose response retest, primary screen (AID 1117319).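 Also: TR-FRET signal of purified GST-Vif binding a biotinylated A3G peptide; inhibitors lower the FRET signal by blocking Vif and A3G binding.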 It counts as functional.

SMILES strings stand for the structures. Calls of active or inactive are those of the source.
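For AC50 in this document: cells exposed to compound for roughly 70 hours or longer before luminescence read.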

Chain of Induced myeloid leukemia cell differentiation protein Mcl-1 (Q07820 whole entry): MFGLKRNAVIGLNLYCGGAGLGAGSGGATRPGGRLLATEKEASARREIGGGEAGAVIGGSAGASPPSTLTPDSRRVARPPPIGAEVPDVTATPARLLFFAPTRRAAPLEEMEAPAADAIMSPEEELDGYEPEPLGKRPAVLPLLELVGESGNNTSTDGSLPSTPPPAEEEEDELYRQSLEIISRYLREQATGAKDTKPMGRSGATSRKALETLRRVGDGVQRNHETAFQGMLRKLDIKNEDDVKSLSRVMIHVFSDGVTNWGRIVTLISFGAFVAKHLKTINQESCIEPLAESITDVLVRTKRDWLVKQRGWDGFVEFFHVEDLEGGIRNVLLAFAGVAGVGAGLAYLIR

Take `Cc1cc(C)c2c(c1)C1C=CCC1C(c1ccc(S(=O)(=O)N3CCOCC3)cc1)N2` (configuration not stated): the CC50 in [1] is 15.6 µM (active). Besides, the EC50 in [2] and in assay [3] was > 300 µM (not active) in each case. Besides, the figures for the IC50 in [4] and in assay [5] were 2.74 µM (active) and 11.7 µM (active), respectively.
With `O=C(Nc1cccc(C(F)(F)F)c1)N1CCC(c2nc(-c3ccc(F)cc3)no2)CC1`, the CC50 is > 40 µM (active) in assay [6] and 12.6 µM (active) in assay [7].
`C[C@]12CC[C@H]3C(CCC4(O)CC(O)CC[C@]34C=O)C1=CC[C@H]2c1ccc(=O)oc1` (some centres not stated): the half-maximal effective concentration (EC50) in [8] was 6.93 µM (active); in assay [9] it was 5.93 µM (active); in assay [10], 1.62 µM (active); in assay [13] it was > 29.9 µM (inactive). In addition, the 50% cytotoxic concentration (CC50) in [7] is 20.5 µM (active). For the same compound, the AC50 in assay [11] is 3.49 µM (active). Further, the IC50 in assay [12] was > 29.9 µM (inactive).
Regarding `CCOc1ccc(NC(=O)C2CCCN(S(=O)(=O)c3c(C)n[nH]c3C)C2)cc1` (configuration not stated), the IC50 in assay [14] is > 100 µM (active).
Take `NC(=O)[C@H]1CC2(CC(c3cccc(NC(=O)COc4ccc(Cl)cc4)c3)=NO2)CN1C(=O)c1ccccc1C(=O)c1ccccc1` (some centres not stated): the CC50 in [1] is 12.3 µM (active). Moreover, the IC50 in assay [5] was 24.9 µM (active).
